The results in this text go back to patent publication US8716440B2, “Method of liberating and recovering peptide” (Sysmex Corporation, priority 2011, dated 2014).

Molecules are shown by their SMILES. pKd: −log10 of the molar value. Residues, ends and D or L forms follow the SMILES beside them.

The target of data set [1] is T1, bovine serum albumin (BSA) (Bos taurus, UniProt P02769).
T1 construct: purchased Sigma-Aldrich Japan Inc
In words: Fluorescence titration method, Kd between BSA and peptide. It counts as binding. The text has this: FITC-SA21 (Biologica Co, Ltd.) in which SA21 consisting of 18 amino acids was labeled with fluorescein isothiocyanate (FITC) (a green fluorescent dye) was used as a peptide. The SA21 is an acidic peptide. The used albumin was BSA (Sigma-Aldrich Japan Inc.).

The target in data set [2] is T2, human serum albumin (HSA) (Homo sapiens, UniProt P02768).
T2 construct: purchased Sigma-Aldrich Japan Inc
T2 sequence (P02768 25-609): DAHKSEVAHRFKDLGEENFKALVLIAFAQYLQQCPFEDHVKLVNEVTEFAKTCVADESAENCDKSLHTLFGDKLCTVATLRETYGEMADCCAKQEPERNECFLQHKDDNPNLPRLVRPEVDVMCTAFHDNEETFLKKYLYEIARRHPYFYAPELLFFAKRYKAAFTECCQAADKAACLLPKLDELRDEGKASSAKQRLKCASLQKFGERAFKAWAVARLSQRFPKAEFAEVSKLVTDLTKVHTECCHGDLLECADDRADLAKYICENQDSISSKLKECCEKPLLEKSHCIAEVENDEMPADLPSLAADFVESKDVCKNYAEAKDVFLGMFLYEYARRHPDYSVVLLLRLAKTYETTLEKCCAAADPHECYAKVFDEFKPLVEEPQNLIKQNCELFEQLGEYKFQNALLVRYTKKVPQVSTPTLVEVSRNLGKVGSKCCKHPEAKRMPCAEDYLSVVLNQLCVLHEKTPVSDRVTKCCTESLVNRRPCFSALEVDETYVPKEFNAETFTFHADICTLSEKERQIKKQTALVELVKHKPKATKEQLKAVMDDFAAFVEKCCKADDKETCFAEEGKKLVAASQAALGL
Briefly: Fluorescence titration method, Kd between HSA and peptide. The following applies: solution in ultrapure water: ACTH partial peptide 34 μM, TMR-ACTH partial peptide 6 μM, HSA 600 μM. Type of data set: binding. The source says:
The ACTH is a basic peptide. The used albumin was human serum albumin (HSA, Sigma-Aldrich Japan Inc.).

T1 sequence (P02769 25-607): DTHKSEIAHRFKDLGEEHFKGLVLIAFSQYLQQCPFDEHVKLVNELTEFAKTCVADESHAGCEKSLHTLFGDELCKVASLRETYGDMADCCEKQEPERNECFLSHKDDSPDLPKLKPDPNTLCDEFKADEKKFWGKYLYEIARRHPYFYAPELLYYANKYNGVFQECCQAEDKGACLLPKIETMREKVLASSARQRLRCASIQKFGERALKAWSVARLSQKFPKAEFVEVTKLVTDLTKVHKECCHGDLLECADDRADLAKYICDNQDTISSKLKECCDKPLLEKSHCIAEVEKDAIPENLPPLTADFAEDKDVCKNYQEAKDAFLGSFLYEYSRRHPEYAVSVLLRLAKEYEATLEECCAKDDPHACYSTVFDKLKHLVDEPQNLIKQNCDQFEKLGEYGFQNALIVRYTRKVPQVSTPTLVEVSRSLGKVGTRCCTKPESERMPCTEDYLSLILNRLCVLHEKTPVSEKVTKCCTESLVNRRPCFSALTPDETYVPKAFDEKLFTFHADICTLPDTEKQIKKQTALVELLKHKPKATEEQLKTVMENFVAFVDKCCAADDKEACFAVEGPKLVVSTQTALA

For orientation: pKd means the negative decadic logarithm of the Kd, by convention in mol/L. In the case of `CC[C@H](C)[C@H](NC(=O)[C@H](CC(C)C)NC(=O)[C@H](CCCNC(=N)N)NC(=S)Nc1ccc2c(c1)C(=O)OC21c2ccc(O)cc2Oc2cc(O)ccc21)C(=O)N[C@@H](CCC(=O)O)C(=O)N[C@@H](CC(=O)O)C(=O)N[C@H](C(=O)N[C@H]1CSSC[C@@H](C(=O)N[C@@H](CC(C)C)C(=O)N[C@@H](Cc2c[nH]c3ccccc23)C(=O)N[C@@H](CCC(=O)O)C(=O)N[C@@H](CC(=O)O)C(=O)N[C@@H](CC(=O)O)C(N)=O)NC(=O)CNC(=O)[C@H](Cc2c[nH]c3ccccc23)NC(=O)[C@H](CCCNC(=N)N)NC(=O)[C@@H]2CCCN2C(=O)[C@H](CC(C)C)NC1=O)[C@@H](C)CC` [FITC-SA21] (HELM PEPTIDE1{[O=C1OC2(c3ccc(O)cc3Oc3cc(O)ccc32)c2ccc(NC(=S)[*:2])cc21].R.L.I.E.D.I.C.L.P.R.W.G.C.L.W.E.D.D.[am]}$PEPTIDE1,PEPTIDE1,8:R3-14:R3$$$V2.0; N-terminus and C-terminus assumed), the pKd in data set [1] (fluorescence titration, read-out: Kd value between the BSA and FITC-SA21) was at least 6.00. Further, the “fraction of FITC-SA21 forming a complex with albumin” value in data set [1] (solution in ultrapure water: FITC-SA21 43 (M, BSA 100 (M)), printed as complex with the HSA) worked out at 98.3%. Besides, the “affinity of binding to BSA relative to affinity of binding between the HSA and ACTH partial peptide” value in data set [1] (times stronger than HSA/ACTH partial peptide binding) is 6 times.
In the case of `CSCC[C@H](NC(=O)[C@H](CO)NC(=O)[C@H](Cc1ccc(O)cc1)NC(=O)[C@H](CO)NC(=O)c1ccc2c(c1)C(=O)OC21c2ccc(N(C)C)cc2Oc2cc(N(C)C)ccc21)C(=O)N[C@@H](CCC(=O)O)C(=O)N[C@@H](Cc1c[nH]cn1)C(=O)N[C@@H](Cc1ccccc1)C(=O)N[C@@H](CCCNC(=N)N)C(=O)N[C@@H](Cc1c[nH]c2ccccc12)C(=O)NCC(=O)N[C@@H](CCCCN)C(=O)N1CCC[C@H]1C(=O)N[C@H](C(=O)NCC(=O)N[C@@H](CCCCN)C(=O)N[C@@H](CCCCN)C(=O)N[C@@H](CCCNC(=N)N)C(=O)N[C@@H](CCCNC(=N)N)C(=O)N1CCC[C@H]1C(=O)N[C@H](C(=O)N[C@@H](CCCCN)C(=O)N[C@H](C(=O)N[C@@H](Cc1ccc(O)cc1)C(=O)N1CCC[C@H]1C(=O)O)C(C)C)C(C)C)C(C)C` [TMR-ACTH partial peptide], in data set [2], the “fraction of peptide forming a complex with the HSA” value was found to be 98.9%.
